Our source for the bioavailability values is ChEMBL document CHEMBL1152359, “Synthesis and structure-activity relationships of gamma-carboline derivatives as potent and selective cysLT(1) antagonists” (Bioorg Med Chem Lett, 2009).

The data set in a line: in vivo. As to conditions: rat.

With `CC(C)(O)c1ccccc1CC[C@@H](SCC1(CC(=O)O)CC1)c1cccc(/C=C/c2ccc3ccc(Cl)cc3n2)c1` [MONTELUKAST], the bioavailability was found to be 63%.
As for `COc1cc(C(=O)NS(=O)(=O)c2ccccc2C)ccc1Cc1cn(C)c2ccc(NC(=O)OC3CCCC3)cc12` [ZAFIRLUKAST], the figure is 25%.
